SMILES strings stand for the structures. Counter-ions that a name gives are not always drawn.

One assay has as its target T1, Human recombinant MAO-A (Homo sapiens, UniProt P21397).
T1 construct: Full-length human recombinant MAO-A and MAO-B proteins were both expressed in Baculovirus infected Sf 9 cells; FLAG (N); host or cells: Baculovirus-infected Sf9 insect cells
T1 sequence (P21397 1-527): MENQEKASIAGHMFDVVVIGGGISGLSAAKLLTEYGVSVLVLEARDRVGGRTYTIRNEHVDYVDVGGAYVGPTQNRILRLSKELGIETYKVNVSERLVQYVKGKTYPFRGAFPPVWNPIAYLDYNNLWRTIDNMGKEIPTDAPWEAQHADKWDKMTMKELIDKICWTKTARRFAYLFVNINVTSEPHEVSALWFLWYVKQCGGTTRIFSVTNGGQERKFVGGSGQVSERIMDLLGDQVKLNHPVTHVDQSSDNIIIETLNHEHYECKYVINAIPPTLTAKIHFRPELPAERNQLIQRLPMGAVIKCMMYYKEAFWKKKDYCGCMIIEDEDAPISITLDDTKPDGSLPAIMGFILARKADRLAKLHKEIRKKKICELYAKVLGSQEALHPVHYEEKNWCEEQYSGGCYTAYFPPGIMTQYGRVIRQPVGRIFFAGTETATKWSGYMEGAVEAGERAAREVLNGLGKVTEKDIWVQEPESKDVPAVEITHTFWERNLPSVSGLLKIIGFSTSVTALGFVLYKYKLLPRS
Put plainly: Human recombinant MAO-A inhibitory activity assay (Promega MAO-Glo). The format is biochemical. The note with it: human recombinant enzyme expressed in Sf 9 cells; substrate tyramine 40 µM; 15 min pre-incubation, 60 min reaction, room temperature; 10 concentrations, duplicate wells. Here is the method: (§1) Full-length human recombinant MAO-A and MAO-B proteins were both expressed in Baculovirus infected Sf 9 cells, containing an N-terminal FLAG tag, with a molecular weight of 59.8 kDa. […] A 40 µM substrate was incubated with the MAO protein at room temperature for 1 hour. The product generated by the oxidative deamination reaction between the MAO and the substrate was incubated with a fluorescent luminescent agent for 0.5 hours, and then the activity of the MAO was detected using the Promega MAO-Glo TM detection method.
(§2) Human recombinant monoamine oxidase A/B expressed in Sf 9 cells was used. During the experiment, the recombinant monoamine oxidase A/B was first dissolved in a HEPES buffer (0.8% NaCl, 0.037% KCl, 0.0135% Na2HPO4·2H2O, 0.1% Glucan, 0.5% HEPES, pH 7.0). 10 µL of the monoamine oxidase A/B solution was added to a 384-well plate, followed by the addition of the test compound (final DMSO concentration of 1%) in each well for 10 concentration gradients. […] The plate was incubated at room temperature for 15 minutes. 10 µL of a substrate solution (40 µM, with tyramine and benzylamine as substrates for MAO-A and MAO-B, respectively) was added to each well, followed by incubation at room temperature for 60 minutes. Subsequently, 20 µL of luciferin detection reagent was added to each well, mixed thoroughly, and incubated at room temperature for 20 minutes to generate a stable fluorescent signal. The fluorescent signal was read using a fluorescence microplate reader, and the values were expressed as relative light units (RLU). The experiment was designed with duplicate wells, and the average value was used to calculate the enzyme activity inhibition rate using the following formula: Inh% = (Max-Signal) / (Max-Min)∗100 [formula] • where Max is the value detected at the maximum concentration of the sample, Min is the value detected at the minimum concentration of the sample, and Signal is the value detected at the current concentration of the sample. […] Table 1. Activity Data IC50 (nM)

A further assay deals with T2, Human recombinant MAO-B (Homo sapiens, UniProt P27338).
T2 construct: Full-length human recombinant MAO-A and MAO-B proteins were both expressed in Baculovirus infected Sf 9 cells; FLAG (N); host or cells: Baculovirus-infected Sf9 insect cells
T2 sequence (P27338 1-520): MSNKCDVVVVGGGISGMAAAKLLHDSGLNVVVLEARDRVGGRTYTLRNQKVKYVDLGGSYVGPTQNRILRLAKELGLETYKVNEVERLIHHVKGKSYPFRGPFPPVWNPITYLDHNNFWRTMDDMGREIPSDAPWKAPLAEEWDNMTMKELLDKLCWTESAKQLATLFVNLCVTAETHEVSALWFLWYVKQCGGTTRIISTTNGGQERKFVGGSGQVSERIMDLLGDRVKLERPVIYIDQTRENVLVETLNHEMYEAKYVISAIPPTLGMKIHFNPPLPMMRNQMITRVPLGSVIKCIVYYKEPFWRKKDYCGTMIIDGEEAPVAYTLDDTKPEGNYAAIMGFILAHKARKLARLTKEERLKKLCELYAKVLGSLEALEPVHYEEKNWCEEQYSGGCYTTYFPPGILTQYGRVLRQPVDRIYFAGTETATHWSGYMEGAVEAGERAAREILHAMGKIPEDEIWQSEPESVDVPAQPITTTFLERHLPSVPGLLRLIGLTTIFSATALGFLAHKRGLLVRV
Put plainly: Human recombinant MAO-B inhibitory activity assay (Promega MAO-Glo). The assay is classed as biochemical. Conditions: human recombinant enzyme expressed in Sf 9 cells; substrate benzylamine 40 µM; 15 min pre-incubation, 60 min reaction, room temperature; 10 concentrations, duplicate wells. On the procedure:
as §1, §2

Turning to `NC(=O)[C@H]1CC[C@H](c2ccc(-c3ccc(C(F)(F)F)cc3)cc2)N1` [Compound 7, hydrochloride], the IC50 on Human recombinant MAO-A is greater than 10000 nM; at Human recombinant MAO-B it was 147 nM.
Taken in the same sequence, the figures for `CN(C)C(=O)[C@@H]1CC[C@H](c2ccc(-c3ccc(C(F)(F)F)cc3)cc2)N1` [Compound 28, hydrochloride] were greater than 10000 nM and 1000 nM.
Consider `CC1C[C@H](c2ccc(-c3ccc(C(F)(F)F)cc3)cc2)N[C@@H]1C(N)=O` (some centres unmarked) [Compound 25, hydrochloride], for which the results for the IC50 on Human recombinant MAO-A and at Human recombinant MAO-B were greater than 10000 nM and 1510 nM, respectively.
Taken in the same sequence, the figures for `NC(=O)[C@@H]1CC[C@H](c2ccc(-c3ccc(C(=O)O)cc3)cc2)N1` [Compound 13, hydrochloride] were greater than 10000 nM and 1540 nM.
As to `NC(=O)[C@H]1CC[C@@H](c2ccc(-c3ccc(C(F)(F)F)cc3)cc2)N1` [Compound 8, hydrochloride], the IC50 amounted to 9970 nM at Human recombinant MAO-A and 562 nM at Human recombinant MAO-B.
Taken in the same sequence, the figures for `COc1cc(-c2ccc(C(F)(F)F)cc2)ccc1[C@H]1CC[C@@H](C(N)=O)N1` [Compound 20, hydrochloride] were greater than 10000 nM and 998 nM.
On to `CNC(=O)[C@@H]1CC[C@H](c2ccc(-c3ccc(C(F)(F)F)cc3)cc2)N1` [Compound 27, hydrochloride], for which the values for the IC50 on Human recombinant MAO-A and at Human recombinant MAO-B were greater than 10000 nM and 7530 nM, respectively.
On to `NC(=O)[C@@H]1CC[C@H](c2cc(F)c(-c3ccc(C(F)(F)F)cc3)c(F)c2)N1` [Compound 22, hydrochloride], for which the IC50 at Human recombinant MAO-A was greater than 10000 nM; on Human recombinant MAO-B, 434 nM.
In the same order, the values of `NC(=O)[C@@H]1CC[C@H](c2c(F)cc(-c3ccc(C(F)(F)F)cc3)cc2F)N1` [Compound 24, hydrochloride] are greater than 10000 nM and 773 nM.
Taken in the same sequence, the figures for `NC(=O)[C@@H]1CC[C@H](c2ccc(-c3ccccc3C(F)(F)F)cc2)N1` [Compound 9, hydrochloride] were greater than 10000 nM and 890 nM.
On to `NC(=O)[C@@H]1CC[C@H](c2ccc(-c3ccc(C(F)(F)F)cc3)cc2)N1` [Compound 1, hydrochloride], for which the IC50 at Human recombinant MAO-A was greater than 10000 nM; at Human recombinant MAO-B, 83 nM.
Take `NC(=O)[C@@H]1CC[C@@H](c2ccc(-c3ccc(C(F)(F)F)cc3)cc2)N1` [Compound 6, hydrochloride]: the IC50 on Human recombinant MAO-A was greater than 10000 nM; on Human recombinant MAO-B it was 104 nM.
Taken in the same sequence, the figures for `N#Cc1cc([C@H]2CC[C@@H](C(N)=O)N2)ccc1-c1ccc(C(F)(F)F)cc1` [Compound 23, hydrochloride] were 9830 nM and 2530 nM.
In the same order, the values of `COC(=O)[C@@H]1CC[C@H](c2ccc(-c3ccc(F)cc3)cc2)N1` [Compound 32, hydrochloride] are greater than 10000 nM and 1990 nM.
In the same order, the values of `NC(=O)c1ccc(-c2ccc([C@H]3CC[C@@H](C(N)=O)N3)cc2)cc1` [Compound 14, hydrochloride] are greater than 10000 nM and 991 nM.
Turning to `NC(=O)[C@@H]1CC[C@H](c2ccc(-c3cccc(F)c3)cc2)N1` [Compound 5, hydrochloride], the half-maximal inhibitory concentration (IC50) at Human recombinant MAO-A was greater than 10000 nM; at Human recombinant MAO-B, 3050 nM.
In the same order, the values of `CN1[C@@H](c2ccc(-c3ccc(C(F)(F)F)cc3)cc2)CC[C@H]1C(N)=O` [Compound 26] are greater than 10000 nM and 3670 nM.
Consider `NC(=O)[C@@H]1CC[C@H](c2ccc(-c3ccc([N+](=O)[O-])cc3)cc2)N1` [Compound 12, hydrochloride], for which the concentration for half-maximal inhibition (IC50) on Human recombinant MAO-A was found to be 6320 nM; on Human recombinant MAO-B, 796 nM.
As to `CCN1[C@@H](c2ccc(-c3ccc(C(F)(F)F)cc3)cc2)CC[C@H]1C(N)=O` [Compound 30], the figures for the IC50 on Human recombinant MAO-A and at Human recombinant MAO-B were greater than 10000 nM and 562 nM, respectively.
In the same order, the values of `NC(=O)[C@@H]1CC[C@H](c2ccc(-c3ccc(F)cc3)cc2)N1` [Compound 2, hydrochloride] are greater than 10000 nM and 1510 nM.
In the case of `NC(=O)[C@@H]1CC[C@H](c2ccc(-c3cccc(C(F)(F)F)c3)cc2)N1` [Compound 4, hydrochloride], the IC50 is greater than 10000 nM at Human recombinant MAO-A and 477 nM on Human recombinant MAO-B.
Taken in the same sequence, the figures for `COC(=O)c1ccc(-c2ccc([C@H]3CC[C@@H](C(N)=O)N3)cc2)cc1` [Compound 15, hydrochloride] were greater than 10000 nM and 784 nM.
Regarding `NC(=O)[C@@H]1CC[C@H](c2ccc(-c3ccc(OC(F)(F)F)cc3)cc2)N1` [Compound 3, hydrochloride], the IC50 on Human recombinant MAO-A is greater than 10000 nM; on Human recombinant MAO-B it was 199 nM.
Taken in the same sequence, the figures for `N#Cc1cc(-c2ccc(C(F)(F)F)cc2)ccc1[C@H]1CC[C@@H](C(N)=O)N1` [Compound 21, hydrochloride] were greater than 10000 nM and 1360 nM.
Taken in the same sequence, the figures for `O=C(O)[C@@H]1CC[C@H](c2ccc(-c3ccc(F)cc3)cc2)N1` [Compound 31, hydrochloride] were greater than 10000 nM and 533 nM.
Taken in the same sequence, the figures for `N#Cc1ccc(-c2ccc([C@H]3CC[C@@H](C(N)=O)N3)cc2)cc1` [Compound 11, hydrochloride] were 9360 nM and 1340 nM.
Consider `NC(=O)[C@@H]1CC[C@H](c2ccc(-c3ccc(Cl)cc3)cc2)N1` [Compound 10, hydrochloride], for which the IC50 on Human recombinant MAO-A worked out at 83300 nM; on Human recombinant MAO-B, 564 nM.
In the same order, the values of `NC(=O)[C@@H]1CC[C@H](c2ccc(-c3ccccc3)cc2)N1` [Compound 16, hydrochloride] are greater than 10000 nM and 7530 nM.
Taken in the same sequence, the figures for `COc1ccc(-c2ccc([C@H]3CC[C@@H](C(N)=O)N3)cc2)cc1` [Compound 18, hydrochloride] were 9110 nM and 3570 nM.
In the same order, the values of `Cc1cc(-c2ccc(C(F)(F)F)cc2)ccc1[C@H]1CC[C@@H](C(N)=O)N1` [Compound 19, hydrochloride] are greater than 10000 nM and 891 nM.
For the molecule `Cc1ccc(-c2ccc([C@H]3CC[C@@H](C(N)=O)N3)cc2)cc1` [Compound 17, (2S,5R)-5-[4-(4-methylphenyl)phenyl]-1H-pyrrole-2-carboxamide hydrochloride], the IC50 turned out to be 6330 nM on Human recombinant MAO-A and 710 nM at Human recombinant MAO-B.

The record behind these values is patent EP4790049A1, “BIPHENYL TETRAHYDROPYRROLE COMPOUND, PREPARATION METHOD THEREFOR AND USE THEREOF” (Hainan Yinrui Bio-Pharm Co., Ltd., priority 2023, dated 2025).
